Assay results as given in publication PMC9828467 (Chemmedchem, 2022).

Legend:
[1] = target: Plasmin from human plasma (Homo sapiens, UniProt P00747); assay: Plasmin inhibition assay with chromogenic substrate S-2251; format: biochemical; conditions: ratio to Ki of monovalent AMB
plasmin = conditions: cited from earlier work

Plasmin from human plasma, sequence (P00747 581-810 limits assumed): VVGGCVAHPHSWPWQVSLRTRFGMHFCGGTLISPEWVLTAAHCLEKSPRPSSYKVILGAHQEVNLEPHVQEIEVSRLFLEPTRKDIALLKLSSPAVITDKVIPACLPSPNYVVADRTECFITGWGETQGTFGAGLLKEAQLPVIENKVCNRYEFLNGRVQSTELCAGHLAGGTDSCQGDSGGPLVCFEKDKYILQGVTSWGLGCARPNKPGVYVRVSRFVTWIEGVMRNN
Plasmin from human plasma, sequence (P00747 98-580 partner limits assumed): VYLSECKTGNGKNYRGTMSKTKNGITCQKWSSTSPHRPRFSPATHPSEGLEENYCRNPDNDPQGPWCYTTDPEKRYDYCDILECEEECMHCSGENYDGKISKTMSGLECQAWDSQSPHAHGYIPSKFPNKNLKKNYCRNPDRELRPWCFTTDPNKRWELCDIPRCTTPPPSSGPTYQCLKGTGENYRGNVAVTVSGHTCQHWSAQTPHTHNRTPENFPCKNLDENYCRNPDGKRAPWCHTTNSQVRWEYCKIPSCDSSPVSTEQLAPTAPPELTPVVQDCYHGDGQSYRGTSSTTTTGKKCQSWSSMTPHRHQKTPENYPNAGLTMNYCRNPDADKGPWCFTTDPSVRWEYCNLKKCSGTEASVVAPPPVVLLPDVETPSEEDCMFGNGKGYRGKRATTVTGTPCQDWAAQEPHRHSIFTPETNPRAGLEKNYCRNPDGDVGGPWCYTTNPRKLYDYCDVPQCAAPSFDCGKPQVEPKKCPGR

Row | rp: relative potency = Ki AMB/Ki multi [1] | Compound | Fold stronger plasmin inhibitor than the strongest monovalent benzamidine (plasmin) [fold]
1 | 664.3 | N=C(N)c1ccc(OCCCCCOc2ccc(C(=N)N)cc2)cc1 [Pentamidine, reference compound] | 13
2 | 27.6 | N=C(N)c1ccc(CNC(=O)CCOCCOCCOCCOCCNC(=O)CN(CC(=O)NCCOCCOCCOCCOCCC(=O)NCc2ccc(C(=N)N)cc2)CC(=O)NCCOCCOCCOCCOCCC(=O)NCc2ccc(C(=N)N)cc2)cc1 [Tri‐PEG4−AMB] | 
3 | 3.9 | COCCOCCOCCOCCOCCOCCOCCOCCOCCOCCOCCOCCOCCC(=O)NCc1ccc(C(=N)N)cc1 [m‐dPEG12−AMB] | 
4 | 2.7 | COCCOCCOCCOCCOCCOCCOCCOCCOCCOCCOCCOCCOCCOCCOCCOCCOCCOCCOCCOCCOCCOCCOCCOCCOCCC(=O)NCc1ccc(C(=N)N)cc1 [m‐dPEG24−AMB] | 
